Data reported in PubChem BioAssay (NCI).
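In this assay, cells in 96-well plates receive the compound at five concentrations for 48 hours. Endpoints are linearly interpolated between the surrounding concentrations. Abbreviation: GI50, concentration required for 50% inhibition of growth. At the TGI there is no net growth.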

Columns and labels:
Assay in all cases: DTP human tumour cell line panel, 48 h
HL-60(TB) leukemia = test system: HL-60(TB) leukemia
LOX IMVI melanoma = test system: LOX IMVI melanoma
HS 578T breast = test system: HS 578T breast
OVCAR-3 ovarian = test system: OVCAR-3 ovarian
HCT-15 colon = test system: HCT-15 colon
HT29 colon = test system: HT29 colon
SK-MEL-28 melanoma = test system: SK-MEL-28 melanoma
IGROV1 ovarian = test system: IGROV1 ovarian
NCI-H522 lung = test system: NCI-H522 lung
NCI-H460 lung = test system: NCI-H460 lung
MDA-MB-231 breast = test system: MDA-MB-231 breast
T-47D breast = test system: T-47D breast
OVCAR-4 ovarian = test system: OVCAR-4 ovarian
DU-145 prostate = test system: DU-145 prostate
HOP-62 NSCLC = test system: HOP-62 NSCLC
SK-MEL-5 melanoma = test system: SK-MEL-5 melanoma
M14 melanoma = test system: M14 melanoma
HOP-92 NSCLC = test system: HOP-92 NSCLC
RXF 393 renal = test system: RXF 393 renal
RPMI-8226 leukemia = test system: RPMI-8226 leukemia
SK-OV-3 ovarian = test system: SK-OV-3 ovarian
EKVX NSCLC = test system: EKVX NSCLC
K-562 leukemia = test system: K-562 leukemia
TK-10 renal = test system: TK-10 renal
SF-268 CNS = test system: SF-268 CNS
BT-549 breast = test system: BT-549 breast
COLO 205 colon = test system: COLO 205 colon
A549 NSCLC = test system: A549 NSCLC
SNB-19 CNS = test system: SNB-19 CNS
OVCAR-5 ovarian = test system: OVCAR-5 ovarian
PC-3 prostate = test system: PC-3 prostate
U251 CNS = test system: U251 CNS
MOLT-4 leukemia = test system: MOLT-4 leukemia
NCI-H23 lung = test system: NCI-H23 lung
UO-31 renal = test system: UO-31 renal
UACC-62 melanoma = test system: UACC-62 melanoma
MALME-3M melanoma = test system: MALME-3M melanoma
CCRF-CEM leukemia = test system: CCRF-CEM leukemia
SR leukemia = test system: SR leukemia
OVCAR-8 ovarian = test system: OVCAR-8 ovarian
SW-620 colon = test system: SW-620 colon
SK-MEL-2 melanoma = test system: SK-MEL-2 melanoma
MDA-MB-435 = test system: MDA-MB-435
ACHN renal = test system: ACHN renal
SF-539 CNS = test system: SF-539 CNS
786-0 renal = test system: 786-0 renal
SNB-75 CNS = test system: SNB-75 CNS
KM12 colon = test system: KM12 colon
MCF7 breast = test system: MCF7 breast

SMILES: COc1ccc(-c2ccc(/C=N/n3cnn(CN4CCN(C)CC4)c3=S)o2)c([N+](=O)[O-])c1
- GI50 (HL-60(TB) leukemia): 17.7 µM
- TGI (HL-60(TB) leukemia): 49.9 µM
- GI50 (LOX IMVI melanoma): 23.3 µM
- TGI (LOX IMVI melanoma): 66.8 µM
- GI50 (HS 578T breast): 22.5 µM
- TGI (HS 578T breast): 75.4 µM
- GI50 (OVCAR-3 ovarian): 26.7 µM
- TGI (OVCAR-3 ovarian): 66.9 µM
- GI50 (HCT-15 colon): 16.7 µM
- TGI (HCT-15 colon): 37.5 µM
- GI50 (HT29 colon): 28.4 µM
- TGI (HT29 colon): > 100 µM
- GI50 (SK-MEL-28 melanoma): 44.5 µM
- TGI (SK-MEL-28 melanoma): > 100 µM
- GI50 (IGROV1 ovarian): 54.7 µM
- TGI (IGROV1 ovarian): > 100 µM
- GI50 (NCI-H522 lung): 45 µM
- TGI (NCI-H522 lung): > 100 µM
- GI50 (NCI-H460 lung): 35.2 µM
- TGI (NCI-H460 lung): > 100 µM
- GI50 (MDA-MB-231 breast): 25.3 µM
- TGI (MDA-MB-231 breast): 77.1 µM
- GI50 (T-47D breast): 23.1 µM
- TGI (T-47D breast): 54.3 µM
- GI50 (OVCAR-4 ovarian): > 100 µM
- TGI (OVCAR-4 ovarian): > 100 µM
- GI50 (DU-145 prostate): 38.1 µM
- TGI (DU-145 prostate): > 100 µM
- GI50 (HOP-62 NSCLC): 34.1 µM
- TGI (HOP-62 NSCLC): > 100 µM
- GI50 (SK-MEL-5 melanoma): 23.9 µM
- TGI (SK-MEL-5 melanoma): 62.7 µM
- GI50 (M14 melanoma): 14.2 µM
- TGI (M14 melanoma): 60.7 µM
- GI50 (HOP-92 NSCLC): 17.1 µM
- TGI (HOP-92 NSCLC): 58.4 µM
- GI50 (RXF 393 renal): 24.4 µM
- TGI (RXF 393 renal): > 100 µM
- GI50 (RPMI-8226 leukemia): 21.9 µM
- TGI (RPMI-8226 leukemia): 54.2 µM
- GI50 (SK-OV-3 ovarian): 36.4 µM
- TGI (SK-OV-3 ovarian): > 100 µM
- GI50 (EKVX NSCLC): 34.8 µM
- TGI (EKVX NSCLC): > 100 µM
- GI50 (K-562 leukemia): 33.6 µM
- TGI (K-562 leukemia): > 100 µM
- GI50 (TK-10 renal): 36.4 µM
- TGI (TK-10 renal): > 100 µM
- GI50 (SF-268 CNS): 23.6 µM
- TGI (SF-268 CNS): 69.5 µM
- GI50 (BT-549 breast): 27.5 µM
- TGI (BT-549 breast): 91.8 µM
- GI50 (COLO 205 colon): 52.8 µM
- TGI (COLO 205 colon): > 100 µM
- GI50 (A549 NSCLC): 39.5 µM
- TGI (A549 NSCLC): > 100 µM
- GI50 (SNB-19 CNS): 56.4 µM
- TGI (SNB-19 CNS): > 100 µM
- GI50 (OVCAR-5 ovarian): 34 µM
- TGI (OVCAR-5 ovarian): > 100 µM
- GI50 (PC-3 prostate): 39.3 µM
- TGI (PC-3 prostate): > 100 µM
- GI50 (U251 CNS): 23.5 µM
- TGI (U251 CNS): 65.7 µM
- GI50 (MOLT-4 leukemia): 31.2 µM
- TGI (MOLT-4 leukemia): > 100 µM
- GI50 (NCI-H23 lung): 16.8 µM
- TGI (NCI-H23 lung): 54.6 µM
- GI50 (UO-31 renal): 83.9 µM
- TGI (UO-31 renal): > 100 µM
- GI50 (UACC-62 melanoma): 16.1 µM
- TGI (UACC-62 melanoma): 40 µM
- GI50 (MALME-3M melanoma): 36.9 µM
- TGI (MALME-3M melanoma): > 100 µM
- GI50 (CCRF-CEM leukemia): 11.6 µM
- TGI (CCRF-CEM leukemia): 94.7 µM
- GI50 (SR leukemia): 31.5 µM
- TGI (SR leukemia): > 100 µM
- GI50 (OVCAR-8 ovarian): 18.9 µM
- TGI (OVCAR-8 ovarian): 55.5 µM
- GI50 (SW-620 colon): 31.6 µM
- TGI (SW-620 colon): > 100 µM
- GI50 (SK-MEL-2 melanoma): > 100 µM
- TGI (SK-MEL-2 melanoma): > 100 µM
- GI50 (MDA-MB-435): 30.4 µM
- TGI (MDA-MB-435): 63.1 µM
- GI50 (ACHN renal): 30.1 µM
- TGI (ACHN renal): 70.5 µM
- GI50 (SF-539 CNS): 17 µM
- TGI (SF-539 CNS): 34.1 µM
- GI50 (786-0 renal): 19.6 µM
- TGI (786-0 renal): > 100 µM
- GI50 (SNB-75 CNS): 68.9 µM
- TGI (SNB-75 CNS): > 100 µM
- GI50 (KM12 colon): 33.3 µM
- TGI (KM12 colon): > 100 µM
- GI50 (MCF7 breast): 28.7 µM
- TGI (MCF7 breast): 97.4 µM
